The first experiment addresses T1, Recombinant Human 5′-Nucleotidase (CD73) (Homo sapiens, UniProt P21589).
T1 construct: CHO derived CD73 (Trp27-Lys547), with a C-terminal 6-His tag; 6-His (C); purchased R&D 5795-EN; host or cells: CHO
T1 sequence (P21589 27-547): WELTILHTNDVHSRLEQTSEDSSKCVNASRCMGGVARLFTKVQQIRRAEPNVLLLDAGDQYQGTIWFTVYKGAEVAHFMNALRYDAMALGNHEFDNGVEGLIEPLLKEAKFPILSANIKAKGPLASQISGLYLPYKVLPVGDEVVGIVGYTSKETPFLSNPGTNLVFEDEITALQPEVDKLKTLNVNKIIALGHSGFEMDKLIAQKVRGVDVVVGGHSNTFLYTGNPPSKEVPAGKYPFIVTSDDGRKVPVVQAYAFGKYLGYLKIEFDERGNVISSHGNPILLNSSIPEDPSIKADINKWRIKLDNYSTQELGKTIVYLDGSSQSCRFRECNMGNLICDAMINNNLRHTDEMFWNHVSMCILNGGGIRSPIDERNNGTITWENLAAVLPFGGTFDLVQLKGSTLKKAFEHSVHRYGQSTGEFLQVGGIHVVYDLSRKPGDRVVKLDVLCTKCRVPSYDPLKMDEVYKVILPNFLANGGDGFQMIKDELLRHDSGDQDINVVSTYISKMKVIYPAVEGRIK
Nature of the experiment: CD73 Enzyme Assay. The experiment is classed as biochemical.
Conditions: not given
The source says:
Soluble recombinant CD73 catalyzes the conversion of adenosine monophosphate (AMP) to adenosine and inorganic phosphate. The phosphate detection reagent, PiColorLock™ (Innova Bioscience, Cat #303-0125) is based on the change in absorbance of the dye malachite green in the presence of inorganic phosphate (Pi) and this property can be exploited to measure any enzyme that generates Pi. Recombinant Human 5′-Nucleotidase (CD73) (R&D #5795-EN, CHO derived CD73 (Trp27-Lys547), with a C-terminal 6-His tag) was used in the enzymatic assay. This assay was run in a 384-well plate format (Corning® NBS™ 384 well plates, Cat #3640). The basic assay procedure involves two steps: 1) Enzyme reaction: The CD73 enzyme (R&D #5795-EN) is incubated in the presence or absence of compounds. AMP (sigma, cat #01930) is added to start the […] reaction. 2) Detection step: Gold mix is added to the assay system, then stabilizers are added. After incubation the absorbance of the solution is read at OD 635 nm. The recorded OD signal is proportional to the enzyme activity.
Briefly, 25 μl human CD73 (0.5 nM final concentration) in the enzymatic buffer solutions (20 mM Tris, 25 mM NaCl, 1 mM MgCl2, pH 7.5, 0.005% Tween-20) were mixed with various concentrations of the test compound (dissolved in 100% DMSO). These solutions were incubated for 15 min at 25° C., and subsequently 25 μl AMP (30 μM final concentration) was added to start the reaction. The final reaction mixture of enzyme-substrate-compound was incubated for 20 min at 37° C. Meanwhile ‘Gold mix’ was prepared shortly before use by adding 1/100 vol. of accelerator to the PiColorLock™ Gold reagent. 12 μL/well of the ‘Gold mix’ was added to assay plate containing 50 μL enzyme reaction buffer and incubated at 25° C. for 5 min. 5 μL/well stabilizer was added to the assay plate and incubated at 25° C. for 30 min. The absorbance of the well solutions was measured at 635 nm on a Spark 10M instrument (TECAN).
The percent (%) inhibition at each concentration of a compound was calculated relative to the OD value in the Max and Min control wells contained within each assay plate. The Max control wells contained enzyme and substrate as 0% inhibition, and the M control wells only contained substrate without enzyme as 100% inhibition. The concentrations and percent inhibition values for a test compound are plotted and the concentration of the compound required to achieve 50% inhibition (IC50) was determined with a four-parameter logistic dose response equation.
Take `COP(=O)(CP(=O)(O)O)OC[C@H]1O[C@@H](c2cnc3c(NC4CCCC4)nc(Cl)nn23)[C@H](O)[C@@H]1O` (stereo partly drawn) [Compound 71, (((((2R,3S,4R,1S)-5-(2-chloro-4-(cyclopentylamino)imidazo[2,1-f][1,2,4]triazin-7-yl)-3,4-dihydroxytetrahydrofuran-2-yl)methoxy)(methoxy)phosphoryl)methy)phosphonic Acid]: the IC50 lay within 10 to 99 nM.

The same experiment, now with this note: human CD73 0.5 nM, AMP 30 μM, PiColorLock phosphate detection; read-out: Potency (IC50, CD73 enzyme assay).
Turning to `COP(=O)(CP(=O)(OC)OC[C@H]1O[C@@H](c2cnc3c(NC4CCCC4)nc(Cl)nn23)[C@H](O)[C@@H]1O)OC` (stereo partly drawn) [Compound 57, ((2R,3S,4R,5S)-5-(2-chloro-4-(cyclopentylamino)imidazo[2,1-f][1,2,4]triazin-7-yl)-3,4-dihydroxytetrahydrofuran-2-yl)methyl methyl ((dimethoxyphosphoryl)methyl)phosphonate], the IC50 was greater than 1000 nM.

In the case of `O=P(O)(CP1(=O)OCC[C@@H](c2cccc(Cl)c2)O1)OC[C@H]1O[C@@H](c2cnc3c(NC4CCCC4)nc(Cl)nn23)[C@H](O)[C@@H]1O` (stereo partly drawn) [Compound 58, ((2R,3S,4R,5S)-5-(2-chloro-4-(cyclopentylamino)imidazo[2,1-f][1,2,4]triazin-7-yl)-3,4-dihydroxytetrahydrofuran-2-yl)methyl hydrogen (((4S)-4-(3-chlorophenyl)-2-oxido-1,3,2-dioxaphosphinan-2-yl)methyl)phosphonate], the IC50 was in the range of 100 to 999 nM.

Consider `COP(=O)(CP1(=O)OCC[C@@H](c2cccc(Cl)c2)O1)OC[C@H]1O[C@@H](c2cnc3c(NC4CCCC4)nc(Cl)nn23)[C@H](O)[C@@H]1O` (stereo partly drawn) [Compound 59, ((2R,3S,4R,5S)-5-(2-chloro-4-(cyclopentylamino)imidazo[2,1-f][1,2,4]triazin-7-yl)-3,4-dihydroxytetrahydrofuran-2-yl)methyl methyl (((4S)-4-(3-chlorophenyl)-2-oxido-1,3,2-dioxaphosphinan-2-yl)methyl)phosphonate], for which the IC50 is greater than 1000 nM.

Turning to `O=P(O)(O)CP(=O)(O)OC[C@H]1O[C@@H](c2cnc3c(NC4CCCC4)nc(C4CC4)nn23)[C@H](O)[C@@H]1O` [Compound 60, (((((2R,3S,4R,1S)-5-(4-(cyclopentylamino)-2-cyclopropylimidazo[2,1-f][1,2,4]triazin-7-yl)-3,4-dihydroxytetrahydrofuran-2-yl)methoxy)(hydroxy)phosphoryl)methyl)phosphonic Acid], the IC50 lay in the range of 100 to 999 nM.

For `O=P(O)(O)CP(=O)(O)OC[C@H]1O[C@@H](c2cnc3c(OC4CCCC4)ncnn23)[C@H](O)[C@@H]1O` [Compound 61, (((((2R,3S,4R,1S)-5-(4-(cyclopentyloxy)imidazo[2,1-f][1,2,4]triazin-7-yl)-3,4-dihydroxytetrahydrofuran-2-yl)methoxy)(hydroxy)phosphoryl)methyl)phosphonic Acid], the IC50 was in the range of 100 to 999 nM.

In the case of `COCCOCCOP(=O)(CP(=O)(O)O)OC[C@H]1O[C@@H](c2cnc3c(NC4CCCC4)nc(Cl)nn23)[C@H](O)[C@@H]1O` (stereo partly drawn) [Compound 67, (((((2R,3S,4R,5S)-5-(2-chloro-4-(cyclopentylamino)imidazo[2,1-f][1,2,4]triazin-7-yl)-3,4-dihydroxytetrahydrofuran-2-yl)methoxy)(2-(2-methoxyethoxy)ethoxy)phosphoryl)methyl)phosphonic acid], the IC50 lay in the range of 10 to 99 nM.

Regarding `N#CCCOP(=O)(CP(=O)(O)O)OC[C@H]1O[C@@H](c2cnc3c(NC4CCCC4)nc(Cl)nn23)[C@H](O)[C@@H]1O` (stereo partly drawn) [Compound 69, (((((2R,3S,4R,5S)-5-(2-chloro-4-(cyclopentylamino)imidazo[2,1-f][1,2,4]triazin-7-yl)-3,4-dihydroxytetrahydrofuran-2-yl)methoxy)(2-cyanoethoxy)phosphoryl)methyl) phosphonic acid], the IC50 fell in the range of 10 to 99 nM.

As to `CC(C)OC(=O)OCOP(=O)(CP(=O)(O)OC[C@H]1O[C@@H](c2cnc3c(NC4CCCC4)nc(Cl)nn23)[C@H](O)[C@@H]1O)OCOC(=O)OC(C)C` [Compound 70, (((((((2R,3S,4R,5S)-5-(2-chloro-4-(cyclopentylamino)imidazo[2,1-f][1,2,4]triazin-7-yl)-3,4-dihydroxytetrahydrofuran-2-yl)methoxy)(hydroxy)phosphoryl)methyl)phosphoryl)bis(oxy)) bis(methylene) diisopropyl bis(carbonate)], the IC50 lay in the range of 100 to 999 nM.

Take `COP(=O)(CP(=O)(OC)OC[C@H]1O[C@@H](c2cnc3c(N4CC5CCCC5C4)nc(Cl)nn23)[C@@H](F)[C@@H]1O)OC` (stereo partly drawn) [Compound 76, ((2R,3R,4S,5S)-5-(2-chloro-4-(hexahydrocyclopenta[c]pyrrol-2(1H)-yl)imidazo[2,1-f][1,2,4]triazin-7-yl)-4-fluoro-3-hydroxytetrahydrofuran-2-yl)methyl methyl ((dimethoxyphosphoryl)methyl)phosphonate]: the IC50 was greater than 1000 nM.

On to `O=P(O)(O)CP(=O)(O)OC[C@H]1O[C@@H](c2cnc3c(NCC4CCC(O)CC4)nc(Cl)nn23)[C@H](O)[C@@H]1O` (stereo partly drawn) [Compound 77, (((((2R,3S,4R,1S)-5-(2-chloro-4-(((4-hydroxycyclohexyl)methyl)amino)imidazo[2,1-f][1,2,4]triazin-7-yl)-3,4-dihydroxytetrahydrofuran-2-yl)methoxy)(hydroxy)phosphoryl)methyl)phosphonic Acid], for which the IC50 is less than 10 nM.

For `O=P(O)(O)CP(=O)(O)OC[C@H]1O[C@@H](c2cnc3c(NCC4CCCC(O)C4)nc(Cl)nn23)[C@H](O)[C@@H]1O` (stereo partly drawn) [Compound 78, (((((2R,3S,4R,5S)-5-(2-chloro-4-(((3-hydroxycyclohexyl)methyl)amino)imidazo[2,1-f][1,2,4]triazin-7-yl)-3,4-dihydroxytetrahydrofuran-2-yl)methoxy)(hydroxy)phosphoryl)methyl) phosphonic acid], the IC50 is less than 10 nM.

Take `O=P(O)(O)CP(=O)(O)OC[C@H]1O[C@@H](c2cnc3c(N[C@H]4CC[C@H](N5CCCCC5)C4)nc(Cl)nn23)[C@H](O)[C@@H]1O` [Compound 79, (((((2R,3S,4R,1S)-5-(2-chloro-4-(((1S,3S)-3-(piperidin-1-yl)cyclopentyl)amino)imidazo[2,1-f][1,2,4]triazin-7-yl)-3,4-dihydroxytetrahydrofuran-2-yl)methoxy)(hydroxy)phosphoryl)methyl)phosphonic Acid]: the IC50 was less than 10 nM.

Take `C=Cc1nc(NC2CCCC2)c2ncc([C@@H]3O[C@H](COP(=O)(O)CP(=O)(O)O)[C@@H](O)[C@H]3O)n2n1` [Compound 80, (((((2R,3S,4R,1S)-5-(4-(cyclopentylamino)-2-vinylimidazo[2,1-f][1,2,4]triazin-7-yl)-3,4-dihydroxytetrahydrofuran-2-yl)methoxy)(hydroxy)phosphoryl)methyl)phosphonic Acid]: the IC50 was 10 to 99 nM.

In the case of `O=P(O)(O)CP(=O)(O)OC[C@H]1O[C@@H](c2coc3c(NCc4ccccc4)ncnc23)[C@H](O)[C@@H]1O` [Compound 81, (((((2R,3S,4R,5R)-5-(4-(benzylamino)furo[3,2-d]pyrimidin-7-yl)-3,4-dihydroxytetrahydrofuran-2-yl)methoxyxhydroxy)phosphoryl)methyl)phosphonic acid], the IC50 lay within 10 to 99 nM.

Usually IC50 stands for the point on the concentration scale where inhibition reaches its midpoint.

For the origin of these results see patent publication US20220204539A1, “CD73 INHIBITORS” (BioArdis LLC, priority 2019, published 2022).
